Broadly, the Ki is a measure of affinity in units of concentration, obtained from inhibition or displacement.

Test [1] concerns synaptosomes from the striatal area of rat brain. Put plainly: [3H]-dopamine release from striatal synaptosomes, continuous perfusion. The format is cell-based, Sprague-Dawley rats. The following applies: 0.2 ml of a 20 μM solution of ligand, relative to equal concentration of S(-) nicotine, read-out: Dopamine Release (percent release relative to S(-) nicotine). Here is the method:
Dopamine release was measured by preparing synaptosomes from the striatal area of rat brain obtained from Sprague-Dawley rats generally according to the procedures set forth by Nagy, et al., J. Neurochem., Vol. 43, pp. 1114-1123 (1984). Striata from 4 rats were homogenized in 2 ml of 0.32M sucrose buffered with 5 mM HEPES (pH 7.5), using a glass-teflon tissue grinder. The homogenate was diluted to 5 ml with additional homogenization solution and centrifuged at 1000×g for 10 min. This procedure was repeated on the new pellet and the resulting supernatant was centrifuged at 12,000×g for 20 min. […] Using this method, 30 to 90 percent of the dopamine was taken up into the synaptosomes, as determined by scintillation counting following filtration through glass fiber filters soaked with 0.5 percent polyethyleneimine. […] After the addition of a 0.2 ml of a 20 μM solution of ligand, the perfusate was collected into scintillation vials at 1 min. intervals and the dopamine released was quantified by scintillation counting. Peaks of radioactivity released above background were summed and the average basal release during that time was subtracted from the total. Release was expressed as a percentage of release obtained with an equal concentration of S(-) nicotine.

For test [2], the target named is high affinity nicotinic receptors. Put plainly: Inhibition of L-[3H]nicotine binding to mouse brain membrane preparations. Details: species or system Mice (DBA strain). The following applies: 10 nM L-[3H]nicotine, 2 hr at 4° C., mouse brain membranes, Ki calculated from IC50 by Cheng method. Here is the method:
Mice (DBA strain) were maintained on a 12 hour light/dark cycle and were allowed free access to water and food supplied by Wayne Lab Blox, Madison, WI. Animals used in the present studies were 60 to 90 days of age and weighed 20 to 25 g. Brain membrane preparations were obtained from pooled brain tissue of both males and females.
Mice were killed by cervical dislocation. Brains were removed and placed on an ice-cold platform. The cerebellum was removed and the remaining tissue was placed in 10 volumes (weight:volume) of ice-cold buffer (Krebs-RingersHEPES:NaCl, 118 mM; KCl, 4.8 mM; CaCl2, 2.5 mM; MgSO4, 1.2 mM; HEPES, 20 mM; pH to 7.5 with NaOH) and homogenized with a glass-Teflon tissue grinder. The resulting homogenate was centrifuged at 18000×g for 20 min. and the resulting pellet was resuspended in 20 volumes of water. […] Protein was determined by the method of Lowry, et al., J. Biol. Chem., Vol. 193, pp. 265-275 (1951), using bovine serum albumin as the standard.
The binding of L-[^3 H]nicotine was measured using a modification of the method of Romano, et al., Science, Vol. 210, pp. 647-650 (1980) as described previously by Marks, et al., Mol. Pharmacol., Vol. 30, pp. 427-436 (1986). The binding of L-[^3 H]nicotine was measured using a 2 hr. incubation at 4° C. […] Nonspecific binding was determined by inclusion of 10 μM nonradioactive nicotine in the incubations. […]

Consider `CNCC/C=C/c1cccnc1` [trans-meta-nicotine], for which, in test [1], the Emax is 70%. In test [2], the Ki was 21 ± 5 nM.

The values are drawn from patent publication US5212188A, “Method for treatment of neurodegenerative diseases” (R. J. Reynolds Tabacco Company, priority 1992, dated 1993).
